This is an account of results in patent publication US20140178318A1, “NOVEL COMPOUNDS” (DSM IP ASSETS B.V., priority 2009, published 2014).

This data set is described as follows: Comparative example: solubility of BMDBM in 1:1 mixture of C12-15 alkyl benzoate and other UV-filter.

Text: Where necessary the mixture was centrifuged in order to obtain a clear supernatant.

`CCCCC(CC)COc1ccc(-c2nc(-c3ccc(OC)cc3)nc(-c3ccc(OCC(CC)CCCC)cc3O)n2)c(O)c1` (stereo not drawn) [BEMT, bis-ethylhexyloxyphenol methoxyphenyl triazine]: the “Solubility of BMDBM in C12-15 alkyl benzoate/UV-filter 1:1” value (200 mg BMDBM with 1000 mg of 1:1 mixture, supernatant by HPLC after 1 month at RT) is 3 wt.-%. Further, where the note is “C12-15 alkyl benzoate/UV-filter 1:1”, the “Δ solubility related to cosmetic solvent (BMDBM)” value is −4 wt.-%. The “Δ solubility of BMDBM” value (C12-15 alkyl benzoate/UV-filter 1:1 versus C12-15 alkyl benzoate) is reported as −11 wt.-%.
